According to patent US5091399A, “Antimicrobial compounds and methods of use” (Rohm and Haas Company, priority 1990, dated 1992):
In brackets after ≈: the same amount, converted by molar mass.

Assays:
Assay in all cases: MIC test (biocide), serial dilution in Trypticase Soy Broth
Type in all cases: cell-based
Aspergillus niger = conditions: pH 7.0, starting concentration 500 ppm
Description: (§1) Efficacy tests against eight fungi and four bacteria was carried out. A minimum inhibitory concentration (MIC) value was obtained using Trypticase Soy Broth, pH 7.0, and by preparing serial dilutions with a starting concentration of 500 ppm. A stock solution of the test compound was made in dimethyl sulfoxide (DMSO) or acetone. The MIC's of the compounds of this invention against the test organisms are shown in Table 3. |Test was run in Trypticase Soy Broth, pH 7.0 Starting concentration = 500

Aureobasidium pullulans = conditions: pH 7.0, starting concentration 500 ppm
Description: as §1

Chaetomium globosum = conditions: pH 7.0, starting concentration 500 ppm
Description: as §1

Cladosporium resinae = conditions: Amorphotheca resinae, pH 7.0, starting concentration 500 ppm
Description: as §1

Escherichia coli = conditions: pH 7.0, starting concentration 500 ppm
Description: as §1

Gleophyllum trabeum = conditions: pH 7.0, starting concentration 500 ppm
Description: as §1

Penicillium funiculosum = conditions: Talaromyces funiculosus, pH 7.0, starting concentration 500 ppm
Description: as §1

Pseudomonas aeruginosa = conditions: pH 7.0, starting concentration 500 ppm
Description: as §1

Pseudomonas fluorescens = conditions: pH 7.0, starting concentration 500 ppm
Description: as §1

Rhodotorula rubra = conditions: pH 7.0, starting concentration 500 ppm
Description: as §1

Saccharomyces cerevisiae = conditions: pH 7.0, starting concentration 500 ppm
Description: as §1

Staphylococcus aureus = conditions: pH 7.0, starting concentration 500 ppm
Description: as §1

Chorella = conditions: pH 7.0, starting concentration 500 ppm
Description: as §1

SMILES | MIC (Aspergillus niger) | MIC (Aureobasidium pullulans) | MIC (Chaetomium globosum) | MIC (Cladosporium resinae) | MIC (Escherichia coli) | MIC (Gleophyllum trabeum) | MIC (Penicillium funiculosum) | MIC (Pseudomonas aeruginosa) | MIC (Pseudomonas fluorescens) | MIC (Rhodotorula rubra) | MIC (Saccharomyces cerevisiae) | MIC (Staphylococcus aureus) | MIC (Chorella)
Cn1sc(Sc2nc3ccccc3s2)cc1=O [Compound 1, (2-methyl-4-isothiazolin-3-on-5-yl)-(benzothiazol-2'-yl)sulfide] | 8 µg/mL (≈ 28.5 µM) | 16 µg/mL (≈ 57.1 µM) | 32 µg/mL (≈ 114 µM) | 1 µg/mL (≈ 3.57 µM) | 500 µg/mL (≈ 1780 µM) | < 0.1 µg/mL | 8 µg/mL (≈ 28.5 µM) | > 500 µg/mL | 8 µg/mL (≈ 28.5 µM) | 16 µg/mL (≈ 57.1 µM) | 8 µg/mL (≈ 28.5 µM) | 4 µg/mL (≈ 14.3 µM) | –
CCCCCCCCn1sc(Sc2nc3ccccc3s2)c(Cl)c1=O [Compound 2, [4-chloro-2-(n-octyl)-4-isothiazolin-3-on-5-yl]-(benzothiazol-2'-yl)sulfide] | 63 µg/mL (≈ 153 µM) | 32 µg/mL (≈ 77.5 µM) | – | – | > 250 µg/mL | – | – | > 250 µg/mL | – | – | – | 1 µg/mL (≈ 2.42 µM) | 4 µg/mL (≈ 9.68 µM)
Cc1c(Sc2nc3ccccc3s2)sn(-c2ccc(Cl)cc2)c1=O [Compound 3, [4-methyl-2-(4-chlorophenyl)-4-isothiazolin-3-on-5-yl]-(benzothiazol-2'-yl)sulfide] | 12.5 µg/mL (≈ 32 µM) | – | – | – | – | – | – | 12.5 µg/mL (≈ 32 µM) | 0.4 µg/mL (≈ 1.02 µM) | – | – | – | –
